Molecules are shown by their SMILES. Entries after “also recorded” stand apart in the source; their conditions may differ.

Data on one compound can be found in patent publication US20240325339A1, “MELATONIN AGONIST TREATMENT” (Vanda Pharmaceuticals Inc., priority 2006, published 2024).

For series [1], the system named is healthy volunteers. The series is described as follows: Example 1 clinical trial, 5-hour advance in bedtime: dim light melatonin onset (DLMO) from plasma melatonin. Format: in vivo, human. The procedure: (§1) A clinical trial was conducted to assess the safety of MA-1 as well as to determine the ability of MA-1 to shift the sleep/wake cycle following a 5-hour advance in bedtime. The study was a randomized, double-blind, parallel group, placebo-controlled study. It consisted of a 2-4-week outpatient screening period followed by an 8-day inpatient stay. After acclimating to the sleep lab, bedtime was advanced by 5 hours. The primary objectives of this study were to investigate the exposure-response to MA-1 on advancement of circadian release of endogenous melatonin rhythm as measured by dim light melatonin onset (DLMO, a biomarker of the sleep-wake cycle), to investigate the exposure-response to MA-1 on mean sleep efficiency parameters as measured by PSG, to investigate the exposure-response to MA-1 on objective neurobehavioral performance lapses during scheduled work-time as measured by computerized continuous performance testing, and to assess the safety and tolerability of MA-1. Forty-five healthy volunteers, men and women aged 18-50, were enrolled into this study. Thirty-nine subjects were randomized.
The study was designed to assess the safety and efficacy of four oral doses of MA-1 (10 mg, 20 mg, 50 mg and 100 mg) compared to matching placebo on circadian phase shift, sleep parameters during the major sleep episode, and subject alertness. After written informed consent was signed, subjects that met the inclusion/exclusion criteria at screening and baseline were enrolled into the 8-day in-patient portion of the study. All in-patient assessments were conducted in a time-isolation sleep lab in which no time cues were available to subjects. During the first three nights, subjects were given placebo 30 minutes prior to bedtime (11:00 PM) in a single-blind fashion. Baseline assessments for the efficacy parameters were measured during this period. At 5:00 PM on day 3, subjects started a 19 hour Pre-constant posture (CP) segment during which time the subjects remained seated in a semi-recumbent position and blood samples were collected approximately every hour from 7:00 AM to 12:00 PM. The purpose of the pre-CP segment is to provide a measure of each subject's circadian phase before the start of the night shift segment. On day 4, subjects were randomized to once daily treatment in one of the five treatment groups. In addition, subject sleep-wake routines were advanced 5 hours, such that subjects were required to sleep from approximately 6:00 PM-2:00 AM. […] Safety was assessed throughout the study, at the end of study (EOS) visit on day 8, and at the Follow-up visit. […]
To assess circadian sleep-wake cycles in the study, plasma melatonin levels were assessed. […] To assess the effects of MA-1 on the sleep-wake cycles, DLMO was monitored in subjects before and after treatment. […]

Series [2] has as its system healthy volunteers. The series is described as follows: Example 1 clinical trial, 5-hour advance in bedtime: polysomnography (sleep efficiency, sleep latency, WASO, sleep architecture). The settings on record: human, in vivo. The procedure:
as §1, with “Thirty-nine subjects were randomized.” left out
The study was designed to assess the safety and efficacy of four oral doses of MA-1 (10 mg, 20 mg, 50 mg and 100 mg) compared to matching placebo on circadian phase shift, sleep parameters during the major sleep episode, and subject alertness. […] Baseline assessments for the efficacy parameters were measured during this period. […]

Series [3] can be described thus: Example 1 clinical trial: exposure (Cmax, AUC). Format: in vivo, human. The method, then:
as §1
The differences in DLMO25% between the endpoint day (Nights 4, 5 and 6) and baseline (Night 3) were analyzed by comparing pairwise each dose group to placebo using a linear one-way analysis of variance (ANOVA) model using in SAS® (SAS® Institute, Cary, North Carolina). Means were calculated using the LS Means method in SAS®. Standard deviations were calculated using the Statistical Summary function in SAS®. Other statistical tests were also presented in graphics. These included: linear regression of response vs. exposure (dose, AUC, or Cmax), Kendall-tau nonparametric regression, and Spearman nonparametric regression.

The subject of series [4] is healthy male and female subjects with induced transient insomnia. Description: Example 2 study of single oral doses in induced transient insomnia: polysomnography. Format: in vivo, human. The method, then: (§2) A multi-center, randomized, double-blind, placebo-controlled, parallel-group study was conducted to investigate the efficacy and safety of single oral doses of VEC-162 (20, 50, and 100 mg) and matching placebo in healthy male and female subjects with induced transient insomnia. Approximately four hundred subjects were randomized in approximately a 1:1:1:1 ratio to the treatment groups.
(§3) In general, a screening period began 14 to 35 days prior to the start of the evaluation period, which was Day 1. Prior to Day 1, subjects were asked to increase their sleep time to 9 hours per night. Drug, or placebo, was administered on Night 1, approximately 0.5 hour prior to lights off.
The primary efficacy variable was LPS. LPS is defined as the length of time elapsed between lights off and onset of persistent sleep. In this trial, persistent sleep is defined as the point at which 10 minutes of uninterrupted sleep has begun. Sleep was determined on the basis of polysomnography (PSG).
Secondary efficacy parameters included the following: • Wake After Sleep Onset (WASO): WASO is defined as the time spent awake between onset of sleep and Lights On during Night 1, determined by PSG. • Latency to Non-Awake (LNA): LNA is defined as the number of minutes to reach any stage of sleep. • Total Sleep Time (TST): TST is defined as the number of minutes spent asleep during the entire time in bed.

For series [5] the test system is unchanged. The series is described as follows: Example 2 study: tolerability. Format: in vivo, human. The settings on record: single oral doses 20, 50 and 100 mg. The procedure: as §2, §3
Series [6] in a line: Solubility. Format: physicochemical.
In series [7] the test system is healthy volunteers. Conditions: cited from earlier work.
For series [8], the system named is elderly patients with primary insomnia. The settings on record: 28-day Phase II study; cited from earlier work.
For series [9] the following is noted: 50 mg; cited from earlier work.
The subject of series [10] is preclinical models of acute phase-shifting and chronic re-entrainment. Conditions: cited from earlier work.
Series [11] addresses MT1R melatonin receptor (Homo sapiens, UniProt P48039). Conditions: cited from earlier work.
The target in series [12] is T1, MT2R melatonin receptor (Homo sapiens, UniProt P49286).
T1 sequence (P49286 1-362): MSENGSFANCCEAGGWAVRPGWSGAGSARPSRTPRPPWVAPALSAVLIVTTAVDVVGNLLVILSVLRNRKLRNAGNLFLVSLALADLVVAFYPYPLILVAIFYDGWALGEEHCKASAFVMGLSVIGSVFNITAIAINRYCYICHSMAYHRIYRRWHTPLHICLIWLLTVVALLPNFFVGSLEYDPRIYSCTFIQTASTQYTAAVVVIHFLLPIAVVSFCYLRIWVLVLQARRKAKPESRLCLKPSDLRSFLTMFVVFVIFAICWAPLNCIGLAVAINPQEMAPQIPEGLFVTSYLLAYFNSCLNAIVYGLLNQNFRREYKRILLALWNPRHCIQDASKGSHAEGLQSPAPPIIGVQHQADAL
The settings on record: cited from earlier work.

Chain of MT1R melatonin receptor (P48039 whole entry): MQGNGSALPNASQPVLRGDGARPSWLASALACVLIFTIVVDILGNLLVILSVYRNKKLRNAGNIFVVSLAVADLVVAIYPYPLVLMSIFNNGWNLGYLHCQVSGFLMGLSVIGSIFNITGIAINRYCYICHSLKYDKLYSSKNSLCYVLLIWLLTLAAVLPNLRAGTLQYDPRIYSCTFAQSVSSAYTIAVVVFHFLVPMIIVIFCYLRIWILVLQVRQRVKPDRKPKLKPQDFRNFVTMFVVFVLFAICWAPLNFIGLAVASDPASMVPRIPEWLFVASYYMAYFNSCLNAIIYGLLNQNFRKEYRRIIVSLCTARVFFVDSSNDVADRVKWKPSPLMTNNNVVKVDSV

For the compound `CCC(=O)NC[C@@H]1C[C@H]1c1cccc2c1CCO2` [MA-1, (1R-trans)-N-[[2-(2,3-dihydro-4-benzofuranyl)cyclopropyl]methyl]propanamide], the “Change in DLMO25%, LOQ5 between Night 4 and Night 3” value is 0.18 h in series [1] (10 mg oral, N = 8, mean); -1.14 h in series [1] (20 mg oral, N = 7, mean); -0.50 h in [1] (50 mg oral, N = 4, mean); -2.74 ± 1.95 h in series [1] (100 mg oral, N = 5, mean ± SD). For the same compound, in [2], the “Percentage of time in each sleep stage between Night 4 and Night 2” value is “did not change”. Besides, in series [3] (human, in vivo), the “Exposure levels: effect of covariates” value was “not affected by age, weight, height, gender, creatinine clearance, or ALT baseline levels”. The AUC versus dose entry in [3] (oral doses 10-100 mg) is reported as “increased approximately proportional to dose”. Further, the Cmax versus dose entry in [3] (oral doses 10-100 mg) is recorded as “increased in a manner approximately proportional to the dose”. The “Efficacy compared with 100 mg” value in series [4] (20 mg single oral dose) is listed as “comparable or superior to 100 mg”; in [4] (50 mg single oral dose) it was “more efficacious than 100 mg”. Moreover, in series [5], the Tolerability result is listed as “well-tolerated at all doses”. In addition, in series [6], the “Effect of pH on aqueous solubility” value was “practically unaffected by pH”. Further, the “Tolerability, multiple doses” value in series [7] (multiple doses up to 150 mg, up to 28 days) is “safety and tolerability of MA-1 at doses up to 150 mg has been demonstrated; also recorded: well-tolerated”. For the same compound, the “Tolerability, single doses” value in series [7] (single oral doses up to 300 mg, healthy volunteers) is “safe and well tolerated”. Besides, the “Sleep latency and number of nocturnal awakenings versus placebo” value in series [8] was “did not differentiate from placebo”. For the same compound, in series [9], the “Shift of circadian rhythms” value is “consistently shifted circadian rhythms”. For the same compound, the Chronobiotic activity result in [10] is given as “potent chronobiotic activity”. Moreover, in series [11], the “Agonist activity at MT1R” value was “specific and potent agonist”. Moreover, the “Agonist activity at MT2R” value in [12] is “specific and potent agonist”.
